Measurements taken from patent US7989466B2, “Methods to inhibit or augment an inflammatory response” (Cambridge Enterprise Limited, priority 1999, dated 2011).
Positions of bridges follow the written chain, without caps; N, C: chain ends. Non-standard residues stand in square brackets, D forms with d. Residues, ends and D or L forms follow the SMILES beside them. No end group written: not given here.

Columns and labels:
[1] = test system: antigen specific antibody recall response; assay: Cynomolgus monkeys immunized with scFv antigen; assay type: in vivo; settings: single dose 50 mg/kg i.v.
Procedure: Cynomolgus monkeys were immunized with antigen that is a single chain Fv (scFv) protein. Each animal previously received 3 i.v. injections of the antigen and all developed high serum titers. Five animals were randomly divided into 2 groups. Two animals served as PBS treated controls and 3 were treated i.v. with 50 mg/kg CRD-Leu4Ile11Cys13 peptide 3(3-12)[MCP-1]. Thirty minutes following CRD-Leu4Ile11Cys13 peptide 3(3-12)[MCP-1] treatment all animals were challenged i.v. with 3.5 mg/kg antigen. In addition, animals were challenged intradermal with each of the following in a volume of 50 μl:PBS; 50 μg antigen; 5 μg antigen; 0.5 μg antigen; 500 ng MCP-1; or 50 ng LPS. Serum was collected at 10 minutes, 30 minutes, 60 minutes, 4 hours, and 24 hours. Animals were sacrificed 24 hours after CRD-Leu4Ile11Cys13 peptide 3(3-12)[MCP-1] injection and complete necropsy performed and tissues fixed for histopathology. Fixed and frozen skin samples were harvested for histopathology and immunohistochemistry. […] Blood was also analyzed pre- and post-CRD-Leu4Ile11Cys13 peptide 3(3-12)[MCP-1] injection for hematology parameters and serum chemistry. Serum levels were evaluated by an LC-MS method (limit of quantitation=1 μg/ml) pre-treatment and then at 10 minutes, 30 minutes, 60 minutes, 4 hours and 20-24 hours after injection. […]

[2] = test system: chemokine induced calcium flux; assay: Intracellular calcium flux in THP-1 cells (Fura2); assay type: cell-based, human
Procedure: CRD-Leu4Ile11Cys13 peptide 3(3-12)[MCP-1] at 6.7 μg/ml was incubated with THP-1 cells (2×10^6 cells/ml) for 25 minutes prior to exposure to agonist (10 ng/ml) and measurement of flux. The second exposure to agonist is 2 minutes later. Fluorescence is measured at 510 nm.
Monocytes, eosinophils, neutrophils and lymphocytes loaded with Fura-2 (0.1 nmol/10^5 cells) are stimulated with a chemokine in the presence or absence of the therapeutic agent, and [Ca^2+]i-related fluorescence changes are recorded (Von Tschanner et al., Nature, 324, 369 (1986)). […] The Fura-2 fluorescence of the monocyte suspension is measured at 37° C. in a single excitation, single emission (500 nm) wavelength Perkin-Elmer LS5 fluorometer. [Ca^2+]i is calculated from changes in fluorescence measured at a single excitation wavelength of 340 nm.
After peptide 3 binds to its receptor, it may block proteins required to effect the response (e.g., block specific integrins needed for chemokine-induced migration but not fNLP or TGFb induced migration), down regulate a chemokine receptor, or interfere with signal transduction mechanisms. Interference with signal transduction mechanisms can be detected in either a direct or indirect manner (for example, using assays for measuring intracellular calcium flux, cAMP, pI3, kinase activity, and DAG).

B cells = assay type: cell-based
[3] = Acute and 7-day repeat dose rat toxicity; assay type: in vivo; settings: 1 or 10 mg (5-50 mg/kg) i.v.
Text: That is, all animals remained clinically normal throughout.

gp120 = settings: ns = not significantly different from control; >100 = ED50 not determined

| Molecule | antigen specific antibody response in splenocyte, lymph node and PBL recall responses [1] | effect on MCP-1 induced calcium flux [2] | effect on SDF-1 induced calcium flux [2] | effect on proliferation of B cells to tetanus toxoid (B cells) | acute rat toxicity, clinical findings [3] | gp120 ED-50 (gp120) |
| --- | --- | --- | --- | --- | --- | --- |
| CC[C@@H](C)[C@H]1NC(=O)[C@@H](CCC(N)=O)NC(=O)[C@H](N)CSSC[C@H](C(N)=O)NC(=O)[C@@H](CC(C)C)NC(=O)[C@@H](CC(=O)O)NC(=O)[C@H]2CCCN2C(=O)[C@@H](CCCCN)NC(=O)[C@@H](CCC(N)=O)NC(=O)[C@@H](CCCCN)NC(=O)[C@@H](Cc2c[nH]c3ccccc23)NC1=O (H-[dC][dQ][dI][dW][dK][dQ][dK][dP][dD][dL][dC]-NH2; disulfide 1-11; N-terminus assumed) | reduced antigen specific antibody response | did not block | did block | no effect | no clinically detectable changes |  |
| SYRRITSSKCPKEAV [peptide 2(1-15)[MCP-1]] |  |  |  |  |  | 0.4 µM |
